The values below come from ChEMBL document CHEMBL1201862, “PubChem BioAssay data set” (2004).

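In this assay, cells in 96-well plates receive the compound at five concentrations for 48 hours. Endpoints are linearly interpolated between the surrounding concentrations. GI50: concentration for 50% inhibition of growth.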 Calls of active or inactive are those of the source. Cut-off read from the data, not from the text of the source: active = GI50 up to about 1.1 µM and inactive = higher. Some results are limits rather than exact numbers.

What all share (assay): growth of human tumour cells (NCI), 48 h
Assay [1] relates to HOP-62.
For assay [2], the system named is NCI-H23.
The test system of assay [3] is SNB-19.
Assay [4] relates to RPMI-8226.
In assay [5] the test system is SF-539.
For assay [6], the system named is MDA-MB-231.
Assay [7] relates to A498.
Assay [8] concerns 786-0.
For assay [9], the system named is TK-10.
In assay [10] the test system is M14.
Assay [11] has as its system CAKI-1.
Assay [12] has as its system SNB-75.
The subject of assay [13] is T47D.
For assay [14], the system named is NCI/ADR-RES.
Assay [15] has as its system OVCAR-8.
For assay [16], the system named is SK-MEL-5.
Assay [17] deals with OVCAR-3.
For assay [18], the system named is NCI-H522.
The subject of assay [19] is UACC-62.

Turning to `O=C(NCCN1CCCCC1)c1ccc(I)cc1`, the GI50 in assay [1], in [2], in assay [3], in assay [4], in [5] and in assay [6] was > 100 µM (inactive) throughout. Besides, the GI50 in [7] is 24.8 µM (inactive); in [8], > 100 µM (inactive); in assay [9] it was > 100 µM (inactive); in assay [10], > 100 µM (inactive); in [11], > 100 µM (inactive); in assay [12] it was 89.3 µM (inactive). The GI50 in [13] was > 100 µM (inactive); in assay [14], > 100 µM (inactive); in assay [15] it was > 100 µM (inactive); in assay [16] it was 33.9 µM (inactive); in assay [17], > 100 µM (inactive); in assay [18], > 100 µM (inactive).

`COC(=O)c1ccc2c(c1)sc1nc(-c3ccc(OC)cc3)cn12`: the GI50 is > 100 µM (inactive) in assay [1]; > 100 µM (inactive) in assay [2]; 66.5 µM (inactive) in assay [3]; 32.4 µM (inactive) in assay [4]; 59.8 µM (inactive) in assay [5]; > 100 µM (inactive) in [6]. Besides, the GI50 in assay [7], in [8], in assay [19], in assay [9], in assay [10] and in assay [11] was > 100 µM (inactive) in each case. For the same compound, the GI50 in [12] is 34.8 µM (inactive); in [13] it was 35.2 µM (inactive); in assay [14] it was > 100 µM (inactive); in assay [15] it was 91.4 µM (inactive); in assay [16] it was 21.1 µM (inactive); in [17], > 100 µM (inactive). Also, the GI50 in assay [18] was 62.2 µM (inactive).

For `CCCCn1c2c(c3ccccc3c1=O)C(=O)c1ccccc1-2`, the GI50 in assay [1] is 19.9 µM (inactive); in [2], 45.2 µM (inactive); in assay [4], > 100 µM (inactive); in [5] it was 49.1 µM (inactive); in assay [6], 94 µM (inactive); in [7] it was > 100 µM (inactive). Moreover, the GI50 in assay [8] is 25.3 µM (inactive); in assay [19], > 100 µM (inactive); in [9], 62.4 µM (inactive); in [10] it was > 100 µM (inactive); in [11] it was 25.9 µM (inactive); in [12] it was 37.2 µM (inactive). In addition, the GI50 is 16.2 µM (inactive) in [13]; > 100 µM (inactive) in assay [14]; > 100 µM (inactive) in assay [15]; 5.98 µM (inactive) in assay [16]; > 100 µM (inactive) in assay [17]; 37.8 µM (inactive) in [18].

Take `NS(=O)(=O)c1nnc(NS(=O)(=O)c2ccc([N+](=O)[O-])cc2)s1`: the GI50 in assay [1] is > 100 µM (inactive); in assay [2] it was > 100 µM (inactive); in assay [4], 21.4 µM (inactive); in assay [5], > 100 µM (inactive); in [6] it was > 100 µM (inactive); in assay [7], > 100 µM (inactive). In addition, the GI50 was 37.1 µM (inactive) in assay [8]; > 100 µM (inactive) in assay [19]; > 100 µM (inactive) in [9]; > 100 µM (inactive) in [10]; > 100 µM (inactive) in assay [11]; > 100 µM (inactive) in [12]. In addition, the GI50 was 34.9 µM (inactive) in [13]; > 100 µM (inactive) in assay [14]; > 100 µM (inactive) in assay [15]; 69.2 µM (inactive) in [16]; > 100 µM (inactive) in assay [17]; 29.6 µM (inactive) in [18].

Take `O=S(=O)(c1ccccc1)N1CCCC(c2ccccc2)CC1` (stereo unspecified): the GI50 was 27.5 µM (inactive) in assay [2]; 93.8 µM (inactive) in assay [3]; 16.4 µM (inactive) in assay [4]; > 100 µM (inactive) in assay [5]; 30.4 µM (inactive) in assay [6]; 49 µM (inactive) in assay [7]. Also, the GI50 is 41.9 µM (inactive) in assay [8]; > 100 µM (inactive) in assay [19]; 51.9 µM (inactive) in assay [9]; > 100 µM (inactive) in assay [10]; > 100 µM (inactive) in [11]; 30.8 µM (inactive) in [12]. The GI50 was 44.1 µM (inactive) in assay [13]; 38 µM (inactive) in assay [14]; 37.2 µM (inactive) in assay [15]; 14.6 µM (inactive) in assay [16]; 53.2 µM (inactive) in assay [17]; 35.4 µM (inactive) in [18].

Turning to `CCOC(=O)C1=CC(C)(C(=O)OCC)Nc2c(nc(SC)[nH]c2=O)N1` (stereo unspecified), the GI50 in [1], in assay [2], in assay [3], in [4], in assay [5] and in assay [6] was > 10 µM (inactive) in each case. Moreover, the GI50 in [7], in assay [8], in [9], in assay [10], in assay [11] and in [12] was > 10 µM (inactive) each time. The GI50 in [13], in [14], in assay [15], in assay [16], in assay [17] and in [18] was > 10 µM (inactive) each time.

Turning to `CCOC(=O)/C(C#N)=C/N(CC)/N=C/c1ccccc1`, the GI50 is > 100 µM (inactive) in [2]; > 100 µM (inactive) in assay [3]; > 100 µM (inactive) in [4]; 54.7 µM (inactive) in assay [5]; > 100 µM (inactive) in assay [6]; > 100 µM (inactive) in assay [7]. In addition, the GI50 in assay [8] is 86.9 µM (inactive); in assay [19] it was > 100 µM (inactive); in assay [9] it was > 100 µM (inactive); in assay [10], > 100 µM (inactive); in [11], > 100 µM (inactive); in assay [12], > 100 µM (inactive). Moreover, the GI50 in assay [13] is > 100 µM (inactive); in [14] it was 60.4 µM (inactive); in [15], 81.3 µM (inactive); in assay [16] it was > 100 µM (inactive); in assay [17], > 100 µM (inactive); in [18], > 100 µM (inactive).

On to `COc1cc(O)c2c(=O)c(OC)c(-c3ccc4c(c3)OCO4)oc2c1OC`, for which the GI50 in [1] was 21.8 µM (inactive); in assay [2] it was > 50 µM (inactive); in assay [3], 25.9 µM (inactive); in assay [5], 18.5 µM (inactive); in assay [6], 32 µM (inactive); in assay [7] it was > 50 µM (inactive). In addition, the GI50 is 38.9 µM (inactive) in assay [8]; > 50 µM (inactive) in [19]; > 50 µM (inactive) in assay [9]; > 50 µM (inactive) in assay [10]; > 50 µM (inactive) in [11]; 11.6 µM (inactive) in assay [12]. In addition, the GI50 is > 50 µM (inactive) in [13]; > 50 µM (inactive) in [14]; 19.1 µM (inactive) in [15]; 22.5 µM (inactive) in assay [16]; > 50 µM (inactive) in [17]; > 50 µM (inactive) in assay [18].

With `CC(=O)Nc1ccc(/N=C2\C(c3ccccc3)=C(SC3=C(c4ccccc4)/C(=N\c4ccc(NC(C)=O)cc4)c4ccccc43)c3ccccc32)cc1`, the GI50 was 29.7 µM (inactive) in [1]; 31.3 µM (inactive) in assay [2]; 56 µM (inactive) in assay [3]; 19.4 µM (inactive) in assay [4]; < 0.01 µM (active) in assay [5]; 50.8 µM (inactive) in [6]. The GI50 in [7] was 20.6 µM (inactive); in assay [8], 37.3 µM (inactive); in [9], 69.7 µM (inactive); in assay [10], 27 µM (inactive); in assay [11], 31.4 µM (inactive); in [12] it was 23.2 µM (inactive). In addition, the GI50 in [13] is 12.9 µM (inactive); in assay [14], 27.2 µM (inactive); in assay [15] it was 29.6 µM (inactive); in [16], 15.8 µM (inactive); in assay [17], 27.4 µM (inactive); in assay [18] it was 28.4 µM (inactive).

As to `COC(=O)C1OC(O[C@H]2CC[C@]3(C)[C@H]4CC=C5[C@@H]6CC(C)(C)CC[C@]6(C(=O)OC6OCC(O)C(O)C6OC6OC(C)C(OC7OCC(OC8OCC(O)C(O)C8O)C(O)C7O)C(O)C6O)[C@H](O)C[C@@]5(C)[C@]4(C)CC[C@H]3C2(C)C)C(O)C(O)C1O` (stereo partly specified), the GI50 was 5.33 µM (inactive) in assay [1]; 2.43 µM (inactive) in assay [2]; 3.08 µM (inactive) in [3]; 5.5 µM (inactive) in assay [4]; 11.4 µM (inactive) in assay [5]; 2.71 µM (inactive) in [6]. The GI50 in assay [7] was 2.03 µM (inactive); in assay [8], 6.32 µM (inactive); in [19], 3.29 µM (inactive); in assay [9], 9.51 µM (inactive); in assay [10], 1.85 µM (inactive); in assay [11], 2.87 µM (inactive). For the same compound, the GI50 in assay [12] was 3.44 µM (inactive); in [13], 1.43 µM (inactive); in assay [14], 6.41 µM (inactive); in assay [15], 5.27 µM (inactive); in assay [16], 3.4 µM (inactive); in assay [17], 6.82 µM (inactive). The GI50 in [18] was 2.66 µM (inactive).

As to `Cc1ccccc1NC(=N)Nc1ccccc1C`, the GI50 in assay [1], in [2], in [3], in [4], in [5] and in assay [6] was > 100 µM (inactive) in each case. For the same compound, the GI50 in assay [7] is > 100 µM (inactive); in assay [8], > 100 µM (inactive); in assay [19], > 100 µM (inactive); in [9], > 100 µM (inactive); in assay [10], 66.8 µM (inactive); in [11] it was > 100 µM (inactive). Moreover, the GI50 is 54.6 µM (inactive) in assay [12]; > 100 µM (inactive) in assay [13]; > 100 µM (inactive) in assay [14]; > 100 µM (inactive) in assay [15]; > 100 µM (inactive) in [16]; > 100 µM (inactive) in assay [17]. Also, the GI50 in assay [18] is > 100 µM (inactive).
